Assay results reported in patent US20260234123A1, “Inhibitors of NLRP3” (Mwyngil Therapeutics, Inc., priority 2023, published 2026).

Each molecule was assayed on IL1b release THP-1 (assay: IL1b release THP-1 (ELISA)). Details: Homo sapiens; average EC50; THP-1 cells primed with 1 μg/ml LPS 4 h, stimulated with 10 μM Nigericin 2 h; IL-1β in supernatant by ELISA; read-out: THP 1 IL 1b, EC50.
Type: cell-based
Experimental: Example A. Primary Assays Used to Determine IL1b Release THP-1 (ELISA)
• Microbiological safety cabinet, classII (NuAire, USA) • CO2 incubator (VWR Science, USA) • Countess Automated Cell Counter (Invitrogen, USA, cat. number C10227) • Centrifuge CM 6M (Elmi, Latvia) • Serological pipettes 2, 5, 10, 25, 50, 100 ml sterile (Santa Cruz Biotechnology, Inc., USA, sc-200277, sc-200279, sc-200281, sc-200283, Sc-213234, sc-516777) • Single and multichannel pipettes 0.2-10 μL, 50-1200 μL (Eppendorf AG-Hamburg, Germany) • 50 mL PP sterile tubes (Greiner, cat. Number 210261).
• RPMI-1640 (PanEco, C330) • Sodium pyruvate (Paneco, cat. number Φ023) • Non-Essential amino acids 50× (Paneco, Φ116) • Essential amino acids 50× (Paneco, Φ115/50) • FBS (Hyclone Laboratories Inc, USA, SV30160.03) • Antibiotic-antimycotic (Gibco, USA, 15240-062) • 2-mercaptoethanol 1000×55 mM (Gibco, USA, 21985-023) • LPS-EB ultrapure (invivogen, cat. number tlrl-3pelps) • Nigericin (Sigma, cat. number N7143) • ELISA kit, IL-1beta (Cat #A-8766, Interleukin-1 beta-EIA-BEST, Vector Best). LPS Preparation (5 mg/ml): • 1. Add 1 ml of endotoxin-free water according manufacturer's protocol • 2. Vortex until complete solubilization • 3. Aliquote and store at […] for long term storage.
• 1. Add methanol to 10 mg of powder to produce the 10 mM Nigericin solution • 2. Vortex until complete solubilization • 3. Store at 4° C.
THP-1 cells were propagated in RPMI-1640 (10% FBS, Antibiotic-antimycotic 1×, non-Essential amino acids 1×, Essential amino acids 1×, Sodium pyruvate 2×, 2-mercaptoethanol 0.05 mM) at 37° C. and at 5% CO2 in an incubator.
• 1. THP-1 cells were spined at 100 g for 5 min in 50 ml tube. • 2. THP-1 cells were resuspended in warm culture medium (w/o FBS, w/o Antibiotic-antimycotic, non-Essential amino acids 1×, Essential amino acids 1×, Sodium pyruvate 2×) to the concentration 1,3×10^6 cells. • 3. THP-1 cells were primed in tube with 1 μg/ml of LPS for 4 h at 37° C. and at 5% CO2 in an incubator. • 4. THP-1 cells were stimulated with 10 μM of Nigericin (Cat #N7143-10 MG, Sigma Aldrich) for 2 h at 37° C. and at 5% CO2 in an incubator. • 5. After the full activation, the supernatant was collected and the levels of IL-1β were assessed via ELISA according manufacturer instructions (Cat #A-8766, Vector Best).
The average EC50 values are shown in Table A, wherein “A” corresponds to EC50: A≤0.5 μM, “B” corresponds to 0.5 μM<EC50≤1.0 μM, “C” 1.0 μM<EC50≤5.0 μM, “D” corresponds to 5.0 μM<EC50≤30 μM and “E” corresponds to EC50>30 μM.

| EC50 | SMILES |
| --- | --- |
| 1000 to 5000 nM | COCCN1CCC[C@@H](Nc2cc(C)c(-c3ccc(C(F)(F)F)cc3NS(C)(=O)=O)nn2)C1 [Compound 56, (R)—N-(2-(6-((1-(2-Methoxyethyl)piperidin-3-yl)amino)-4-methylpyridazin-3-yl)-5-(trifluoromethyl)phenyl) methanesulfonamide] |
| < 500 nM | CCN1CCC[C@@H](Nc2nnc(-c3ccc(C(F)(F)F)cc3NS(=O)(=O)CC)cc2C)C1 [Compound 62, (R)—N-(2-(6-((1-Ethylpiperidin-3-yl)amino)-5-methylpyridazin-3-yl)-5-(trifluoromethyl)phenyl) ethanesulfonamide] |
| < 500 nM | CCN1CCC[C@@H](Nc2cc(C)c(-c3ccc(C(F)(F)F)cc3NS(=O)(=O)CC)nn2)C1 [Compound 63, N-[2-[6-[[(3R)-1-ethyl-3-piperidyl]amino]-4-methyl-pyridazin-3-yl]-5-(trifluoromethyl)phenyl]ethanesulfon-amide] |
| < 500 nM | CCN1CCC[C@@H](Nc2nnc(-c3ccc(C(F)(F)F)cc3NS(=O)(=O)C3CC3)cc2C)C1 [Compound 64] |
| < 500 nM | CCN1CCC[C@@H](Nc2cc(C)c(-c3ccc(C(F)(F)F)cc3NS(=O)(=O)C3CC3)nn2)C1 [Compound 65, (R)—N-(2-(6-((1-Ethylpiperidin-3-yl)amino)-4-methylpyridazin-3-yl)-5-(trifluoromethyl)phenyl) cyclopropanesulfonamide] |
| 500 to 1000 nM | CCN1C[C@H](F)C[C@@H](Nc2nnc(-c3ccc(C(F)(F)F)cc3NS(C)(=O)=O)cc2C)C1 [Compound 66, N-(2-(6-(((3R,5R)-1-ethyl-5-fluoropiperidin-3-yl)amino)-5-methylpyridazin-3-yl)-5-(trifluoromethyl)phenyl) methanesulfonamide] |
| 1000 to 5000 nM | Cc1cc(-c2ccc(C(F)(F)F)cc2NS(C)(=O)=O)nnc1N[C@@H]1CCCNC1 [Compound 67, (R)—N-(2-(5-methyl-6-(piperidin-3-ylamino)pyridazin-3-yl)-5-(trifluoromethyl)phenyl) methanesulfonamide] |
| 5000 to 30000 nM | CCN1CCC[C@@H](Nc2nnc(-c3ccc(C(F)(F)F)cc3NS(=O)(=O)c3c[nH]cn3)cc2C)C1 [Compound 68, (R)—N-(2-(6-((1-Ethylpiperidin-3-yl)amino)-5-methylpyridazin-3-yl)-5-(trifluoromethyl)phenyl)-1H-imidazole-5-sulfonamide] |
| 1000 to 5000 nM | CCN1CCC[C@@H](Nc2cc(C)c(-c3ccc(C(F)(F)F)cc3NS(=O)(=O)c3c[nH]cn3)nn2)C1 [Compound 69, N-[2-[6-[[(3R)-1-ethyl-3-piperidyl]amino]-4-methyl-pyridazin-3-yl]-5-(trifluoromethyl)phenyl]-1H-imidazole-4-sulfonamide] |
| 1000 to 5000 nM | CCN1CCC[C@@H](Nc2cc(C)c(-c3ccc(C(F)(F)F)cc3NS(=O)(=O)C(C)C)nn2)C1 [Compound 70, N-[2-[6-[[(3R)-1-ethyl-3-piperidyl]amino]-4-methyl-pyridazin-3-yl]-5-(trifluoromethyl)phenyl]propane-2-sulfonamide] |
| 1000 to 5000 nM | Cc1cc(N[C@@H]2CCCNC2)nnc1-c1ccc(C(F)(F)F)cc1NS(C)(=O)=O [Compound 71, N-[2-[4-methyl-6-[[(3R)-3-piperidyl]amino]pyridazin-3-yl]-5-(trifluoromethyl)phenyl]methanesulfon-amide] |
| 5000 to 30000 nM | CCN1CCC[C@@H](Nc2nnc(-c3ccc(C(F)(F)F)cc3NS(=O)(=O)C(C)C)cc2C)C1 [Compound 72] |
| 5000 to 30000 nM | CN1CCC[C@@H](Nc2nnc(-c3ccc(C(F)(F)F)c4c3NS(=O)(=O)N4)cc2C(F)(F)F)C1 [Compound 93, 6-[2,2-dioxo-4-(trifluoromethyl)-1,3-dihydro-2lambda6,1,3-benzothiadiazol-7-yl]-N-[(3R)-1-methyl-3-piperidyl]-4-(trifluoromethyl)pyridazin-3-amine] |
| < 500 nM | Cc1cc(N[C@@H]2CCCN(C)C2)nnc1-c1ccc(C(F)(F)F)c(N)c1N [Compound 100, (R)-3-(4-methyl-6-((1-methylpiperidin-3-yl)amino)pyridazin-3-yl)-6-(trifluoromethyl)benzene-1,2-diamine] |
| 1000 to 5000 nM | CN1CCC[C@@H](Nc2cc(C(F)(F)F)c(-c3ccc(C(F)(F)F)c(N)c3N)nn2)C1 [Compound 101, 3-[6-[[(3R)-1-methyl-3-piperidyl]amino]-4-(trifluoromethyl)pyridazin-3-yl]-6-(trifluoromethyl)benzene-1,2-diamine] |
| 5000 to 30000 nM | CN1CCC[C@@H](Nc2nnc(-c3ccc(C(F)(F)F)c(N)c3N)cc2C(F)(F)F)C1 [Compound 102, 3-[6-[[(3R)-1-methyl-3-piperidyl]amino]-5-(trifluoromethyl)pyridazin-3-yl]-6-(trifluoromethyl)benzene-1,2-diamine] |
| 5000 to 30000 nM | Cc1cc(-c2ccc(C(F)(F)F)c(N)c2N)nnc1N[C@@H]1CCCN(C)C1 [Compound 103, 3-[5-methyl-6-[[(3R)-1-methyl-3-piperidyl]amino]pyridazin-3-yl]-6-(trifluoromethyl)benzene-1,2-diamine] |
| < 500 nM | CNc1cc(C(F)(F)F)ccc1-c1nnc(N[C@@H]2CCCN(C(C)C)C2)cc1C [Compound 108, N-[(3R)-1-isopropyl-3-piperidyl]-5-methyl-6-[2-(methylamino)-4-(trifluoromethyl)phenyl]pyridazin-3-amine] |
| < 500 nM | CCNc1cc(C(F)(F)F)ccc1-c1nnc(N[C@@H]2CCCN(C(C)C)C2)cc1C [Compound 109, 6-[2-(ethylamino)-4-(trifluoromethyl)phenyl]-N-[(3R)-1-isopropyl-3-piperidyl]-5-methyl-pyridazin-3-amine] |
| < 500 nM | Cc1cc(N[C@@H]2CCCN(C(C)C)C2)nnc1-c1ccc(C(F)(F)F)cc1N [Compound 110, (R)-6-(2-Amino-4-(trifluoromethyl)phenyl)-N-(1-isopropylpiperidin-3-yl)-5-methyl pyridazin-3-amine] |
| < 500 nM | Cc1cc(N[C@@H]2CCCN(C(C)C)C2)nnc1-c1ccc(C(F)(F)F)cc1NC(C)C [Compound 111, 6-[2-(isopropylamino)-4-(trifluoromethyl)phenyl]-N-[(3R)-1-isopropyl-3-piperidyl]-5-methyl-pyridazin-3-amine] |
| < 500 nM | Cc1cc(N[C@@H]2CCCN(C(C)C)C2)nnc1-c1ccc(C(F)(F)F)cc1Nc1ccccc1 [Compound 112, 6-[2-anilino-4-(trifluoromethyl)phenyl]-N-[(3R)-1-isopropyl-3-piperidyl]-5-methyl-pyridazin-3-amine] |
| < 500 nM | Cc1cc(N[C@@H]2CCCN(C(C)C)C2)nnc1-c1ccc(C(F)(F)F)cc1NC(=O)C(F)F [Compound 113] |
| < 500 nM | CCNc1cc(C(F)(F)F)ccc1-c1cc(C)c(N[C@@H]2CCCN(C(C)C)C2)nn1 [Compound 114, 6-[2-(ethylamino)-4-(trifluoromethyl)phenyl]-N-[(3R)-1-isopropyl-3-piperidyl]-4-methyl-pyridazin-3-amine] |
| < 500 nM | Cc1cc(-c2ccc(C(F)(F)F)cc2NC(C)C)nnc1N[C@@H]1CCCN(C(C)C)C1 [Compound 115, 6-[2-(isopropylamino)-4-(trifluoromethyl)phenyl]-N-[(3R)-1-isopropyl-3-piperidyl]-4-methyl-pyridazin-3-amine] |
| < 500 nM | CCN1CCC[C@@H](Nc2cc(C)c(-c3ccc(C(F)(F)F)cc3NC(=O)C(F)(F)F)nn2)C1 [Compound 116, N-[2-[6-[[(3R)-1-ethyl-3-piperidyl]amino]-4-methyl-pyridazin-3-yl]-5-(trifluoromethyl)phenyl]-2,2,2-trifluoro-acetamide] |
| < 500 nM | Cc1cc(N[C@@H]2CCCN(C(C)C)C2)nnc1-c1ccc(C(F)(F)F)cc1NC(=O)C(F)(F)F [Compound 117, (R)-2,2,2-Trifluoro-N-(2-(6-((1-isopropylpiperidin-3-yl)amino)-4-methylpyridazin-3-yl)-5-(trifluoromethyl)phenyl) acetamide] |
